The results in this text go back to patent US20230167073A1 (Teijin Pharma Limited, priority 2020, published 2023).

The test concerns the target T1, Human TRPC6 (Homo sapiens, UniProt Q9Y210).
T1 construct: expressed in transfected cells
T1 sequence (Q9Y210 1-931): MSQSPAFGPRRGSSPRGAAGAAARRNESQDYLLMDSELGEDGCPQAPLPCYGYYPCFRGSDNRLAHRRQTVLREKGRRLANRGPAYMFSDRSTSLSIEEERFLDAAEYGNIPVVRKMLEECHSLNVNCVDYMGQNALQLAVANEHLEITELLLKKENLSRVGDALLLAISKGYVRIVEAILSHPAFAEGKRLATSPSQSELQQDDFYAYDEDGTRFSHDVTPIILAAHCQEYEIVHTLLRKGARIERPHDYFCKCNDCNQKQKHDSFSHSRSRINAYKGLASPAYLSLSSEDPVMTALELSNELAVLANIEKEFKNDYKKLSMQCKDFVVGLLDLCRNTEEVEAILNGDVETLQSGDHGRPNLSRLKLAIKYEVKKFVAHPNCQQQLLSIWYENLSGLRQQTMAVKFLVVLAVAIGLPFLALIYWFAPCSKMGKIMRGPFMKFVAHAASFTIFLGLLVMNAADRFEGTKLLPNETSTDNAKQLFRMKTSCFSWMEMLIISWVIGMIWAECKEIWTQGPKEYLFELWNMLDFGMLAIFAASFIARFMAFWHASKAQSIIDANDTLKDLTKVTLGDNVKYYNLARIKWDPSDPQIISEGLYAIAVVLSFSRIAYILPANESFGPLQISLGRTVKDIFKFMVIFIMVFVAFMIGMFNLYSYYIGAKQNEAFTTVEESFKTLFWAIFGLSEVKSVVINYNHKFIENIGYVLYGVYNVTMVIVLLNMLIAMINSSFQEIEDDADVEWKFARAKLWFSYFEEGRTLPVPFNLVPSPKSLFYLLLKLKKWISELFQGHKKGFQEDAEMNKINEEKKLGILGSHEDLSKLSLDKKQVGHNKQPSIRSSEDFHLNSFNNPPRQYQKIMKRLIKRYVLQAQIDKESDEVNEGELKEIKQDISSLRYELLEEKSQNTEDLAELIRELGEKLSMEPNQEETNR
Briefly: Evaluation of TRPC6 channel inhibitory activity (1), FLIPR Calcium 5 Assay Kit, OAG stimulation (Compound Nos. 1-1293). Type of test: cell-based. As to conditions: Human TRPC6 stably-expressing cells, OAG 30 μM, FLIPR Calcium 5 Assay Kit; read-out: Inhibitory activity (pIC50 class) (converted). On the procedure: Evaluation of TRPC6 Channel Inhibitory Activity (1) (Compound Nos. 1-1293)
In order to investigate TRPC6 channel inhibitory activity of the compounds, evaluation was conducted using FLIPR® Calcium 5 Assay Kit (Molecular Devices) in accordance with the following procedure. Human TRPC6 stably-expressing cells were seeded in a 384-well black clear bottom plate at a density of 5×10^3/well and cultured in an incubator at 37° C. 5% CO2 for 24 hours. Thereafter, 25 μL of a Non Wash Dye Solution, prepared using Component A, 20 mM HEPES-HBSS and 250 mM probenecid, all of which are included in the kit, was added to each well, and the plate was incubated for 30 minutes. A volume of 12.5 μL of a compound solution was added into each well while the fluorescence was measured with FLIPR tetra. After 20 minutes, 12.5 μL of a 1-oleoyl-2-acetyl glycerol (OAG) solution was added at a final concentration of 30 μM. The difference between the minimum fluorescence intensity before the addition of the compound and the maximum fluorescence intensity after the addition of OAG was defined as a signal. An inhibition rate was calculated, assuming the average signal of wells without the compound as the inhibition rate of 0% and the average signal of wells without the compound and OAG as the inhibition rate of 100%. The calculated inhibition rate was analyzed by a four-parameter logistic regression to quantify the inhibition rate in the logarithm of the inverse of the effective concentration which gives a 50% inhibition rate (pIC50). The intensity was expressed by the following symbols (+, ++, +++).

A value given as a limit tells only on which side of the number the result lay.

For the molecule `Cc1nc(Oc2cc(C#N)ccc2-c2ccc(C3CCNC3)cc2)cc(N2CCOCC2)n1` (stereo not drawn) [Compound 53, 3-(2-methyl-6-morpholin-4-ylpyrimidin-4-yl)oxy-4-(4-pyrrolidin-3-ylphenyl)benzonitrile], the IC50 is 10 to 1000 nM.
Then `CCOC(=O)CCNCCc1ccc(-c2ccc(C#N)cc2Oc2cc(N3CCOCC3)nc(C)n2)cc1` [Compound 54, ethyl 3-[2-[4-[4-cyano-2-(2-methyl-6-morpholin-4-ylpyrimidin-4-yl)oxyphenyl]phenyl]ethylamino] propanoate], with above 1000 nM; and `Cc1nc(Oc2cc(C#N)ccc2-c2ccc(C3CN(CCC(=O)O)C3)cc2)cc(N2CCOCC2)n1` [Compound 55, 3-[3-[4-[4-cyano-2-(2-methyl-6-morpholin-4-ylpyrimidin-4-yl)oxyphenyl]phenyl]azetidin-1-yl]propanoic acid], with above 1000 nM.
In the case of `Cc1nc(Oc2cc(C#N)ccc2-c2ccc(CCNCCC(=O)O)cc2)cc(N2CCOCC2)n1` [Compound 56, 3-[2-[4-[4-cyano-2-(2-methyl-6-morpholin-4-ylpyrimidin-4-yl)oxyphenyl]phenyl]ethylamino] propanoic acid] it was above 1000 nM.
Regarding `COCCCNCCc1ccc(-c2ccc(C#N)cc2Oc2cc(N3CCOCC3)nc(C)n2)cc1` [Compound 57, 4-[4-[2-(3-methoxypropylamino)ethyl]phenyl]-3-(2-methyl-6-morpholin-4-ylpyrimidin-4-yl)oxybenzonitrile], the IC50 was above 1000 nM.
Turning to `Cc1nc(Oc2cc(C#N)ccc2-c2ccc(CCNCCCO)cc2)cc(N2CCOCC2)n1` [Compound 58, 4-[4-[2-(3-Hydroxypropylamino)ethyl]phenyl]-3-(2-methyl-6-morpholin-4-ylpyrimidin-4-yl)oxybenzonitrile], the IC50 was 10 to 1000 nM.
Then `Cc1nc(Oc2cc(C#N)ccc2-c2ccc(C(CN)c3ccccc3)cc2)cc(N2CCOCC2)n1` (stereo not drawn) [Compound 59, 4-[4-(2-Amino-1-phenylethyl)phenyl]-3-(2-methyl-6-morpholin-4-ylpyrimidin-4-yl)oxybenzonitrile], with 10 to 1000 nM; and `Cc1nc(Oc2cc(C#N)ccc2-c2ccc(C(CN)c3ccc(F)cc3)cc2)cc(N2CCOCC2)n1` (stereo not drawn) [Compound 60, 4-[4-[2-amino-1-(4-fluorophenyl)ethyl]phenyl]-3-(2-methyl-6-morpholin-4-ylpyrimidin-4-yl)oxybenzonitrile], with 10 to 1000 nM; and `Cc1nc(Oc2cc(C#N)ccc2-c2ccc(C(CN)c3cccc(F)c3)cc2)cc(N2CCOCC2)n1` (stereo not drawn) [Compound 61, 4-[4-[2-amino-1-(3-fluorophenyl)ethyl]phenyl]-3-(2-methyl-6-morpholin-4-ylpyrimidin-4-yl)oxybenzonitrile], with above 1000 nM.
Then `Cc1nc(Oc2cc(C#N)ccc2-c2ccc(C(C)CN)cc2)cc(N2CCOCC2)n1` (stereo not drawn) [Compound 62, 4-[4-(1-aminopropan-2-yl)phenyl]-3-(2-methyl-6-morpholin-4-ylpyrimidin-4-yl)oxybenzonitrile], with below 10 nM.
Regarding `Cc1nc(Oc2cc(C#N)ccc2-c2ccc(C(CN)OCC(=O)O)cc2)cc(N2CCOCC2)n1` (stereo not drawn) [Compound 63, 2-[2-amino-1-[4-[4-cyano-2-(2-methyl-6-morpholin-4-ylpyrimidin-4-yl)oxyphenyl]phenyl]ethoxy] acetic acid], the IC50 was above 1000 nM.
With `COCCOC(CN)c1ccc(-c2ccc(C#N)cc2Oc2cc(N3CCOCC3)nc(C)n2)cc1` (stereo not drawn) [Compound 64, 4-[4-[2-amino-1-(2-methoxyethoxy)ethyl]phenyl]-3-(2-methyl-6-morpholin-4-ylpyrimidin-4-yl)oxybenzonitrile], the IC50 is above 1000 nM.
In the case of `N#Cc1ccc(-c2ccc(CCN)cc2)c(Oc2cnnc(N3CCCC3)c2)c1` [Compound 65, 4-[4-(2-aminoethyl)phenyl]-3-(6-pyrrolidin-1-ylpyridazin-4-yl)oxybenzonitrile] it was below 10 nM; in that of `N#Cc1ccc(-c2ccc(CCN)cc2)c(Oc2cnnc(N3CCCCC3)c2)c1` [Compound 66, 4-[4-(2-aminoethyl)phenyl]-3-(6-piperidin-1-ylpyridazin-4-yl)oxybenzonitrile], below 10 nM; in that of `Cc1nc(Oc2cc(C#N)ccc2-c2ccc(C3(CN)CC3)cc2)cc(N2CCOCC2)n1` [Compound 67, 4-[4-[1-(aminomethyl)cyclopropyl]phenyl]-3-(2-methyl-6-morpholin-4-ylpyrimidin-4-yl)oxybenzonitrile], 10 to 1000 nM.
As for `Cc1nc(Oc2cc(C#N)ccc2-c2ccc(C(C)(O)CN)cc2)cc(N2CCOCC2)n1` (stereo not drawn) [Compound 68, 4-[4-(1-amino-2-hydroxypropan-2-yl)phenyl]-3-(2-methyl-6-morpholin-4-ylpyrimidin-4-yl)oxybenzonitrile], the IC50 is 10 to 1000 nM.
In the case of `N#Cc1ccc(-c2ccc(CCN)cc2)c(Oc2cnnc(-c3ccccc3)c2)c1` [Compound 69, 4-[4-(2-aminoethyl)phenyl]-3-(6-phenylpyridazin-4-yl)oxybenzonitrile] it was below 10 nM.
For `N#Cc1ccc(-c2ccc(CCN)cc2)c(Oc2cnnc(-c3ccccc3O)c2)c1` [Compound 70, 4-[4-(2-aminoethyl)phenyl]-3-[6-(2-hydroxyphenyl)pyridazin-4-yl]oxybenzonitrile], the IC50 is below 10 nM.
Regarding `Cc1nc(Oc2cc(C#N)ccc2-c2nc(C)c(C(O)CN)s2)cc(-c2ccccc2)n1` (stereo not drawn) [Compound 71, 4-[5-(2-amino-1-hydroxyethyl)-4-methyl-1,3-thiazol-2-yl]-3-(2-methyl-6-phenylpyrimidin-4-yl)oxybenzonitrile], the IC50 is 10 to 1000 nM.
For `Cc1nc(Oc2cc(C#N)ccc2-c2ccc(C(CN)c3ccsc3)cc2)cc(N2CCOCC2)n1` (stereo not drawn) [Compound 72, 4-[4-(2-amino-1-thiophen-3-ylethyl)phenyl]-3-(2-methyl-6-morpholin-4-ylpyrimidin-4-yl)oxybenzonitrile], the IC50 was 10 to 1000 nM.
Then `Cc1nc(Oc2cc(C#N)ccc2-c2ccc(C(CN)c3ccoc3)cc2)cc(N2CCOCC2)n1` (stereo not drawn) [Compound 73, 4-[4-[2-amino-1-(furan-3-yl)ethyl]phenyl]-3-(2-methyl-6-morpholin-4-ylpyrimidin-4-yl)oxybenzonitrile], with 10 to 1000 nM; and `Cc1nc(Oc2cc(C#N)ccc2-c2ccc(CCN)nc2)cc(N2CCOCC2)n1` [Compound 74, 4-[6-(2-aminoethyl)pyridin-3-yl]-3-(2-methyl-6-morpholin-4-ylpyrimidin-4-yl)oxybenzonitrile], with 10 to 1000 nM; and `Cc1nc(Oc2cc(C#N)ccc2-c2ccc(CCN)nc2)cc(-c2ccccc2)n1` [Compound 75, 4-[6-(2-aminoethyl)pyridin-3-yl]-3-(2-methyl-6-phenylpyrimidin-4-yl)oxybenzonitrile], with 10 to 1000 nM.
Then `N#Cc1ccc(-c2ccc(CCN)nc2)c(Oc2cnnc(Cl)c2)c1` [Compound 76, 4-[6-(2-aminoethyl)pyridin-3-yl]-3-(6-chloropyridazin-4-yl)oxybenzonitrile], with above 1000 nM; and `N#Cc1ccc(-c2ccc(CCN)nc2)c(Oc2cnnc(N3CCOCC3)c2)c1` [Compound 77, 4-[6-(2-aminoethyl)pyridin-3-yl]-3-(6-morpholin-4-ylpyridazin-4-yl)oxybenzonitrile], with above 1000 nM.
As for `N#Cc1ccc(-c2ccc(CCN)nc2)c(Oc2cnnc(N3CCCCC3)c2)c1` [Compound 78, 4-[6-(2-aminoethyl)pyridin-3-yl]-3-(6-piperidin-1-ylpyridazin-4-yl)oxybenzonitrile], the IC50 is 10 to 1000 nM.
`N#Cc1ccc(-c2ccc(CCN)nc2)c(Oc2cc(Cl)cnn2)c1` [Compound 79, 4-[6-(2-aminoethyl)pyridin-3-yl]-3-(5-chloropyridazin-3-yl)oxybenzonitrile]: the IC50 is above 1000 nM.
